Laboratory results: US20100105749A1, “CHEMICAL COMPOUNDS, PHARMACEUTICAL COMPOSITIONS AND METHODS” (SMITHKLINE BEECHAM CORPORATION, priority 2007, published 2010)

Tested on: Cynomolgus monkeys
Assay: Bilirubin Monkey Test
Type: in vivo
Experimental: The product of Example 4 was formulated in 5% DMSO: 2% Tween 80: 10% SBE-CD with 1 molar equiv of HCl at 6 mg/ml and dosed at 30 mg/kg. Cynomolgus monkeys (each group n=6) had baseline blood drawn at day 0 at 9 am. On day 1, the monkeys were fed their morning meal at 7 am. After 1 hour, all left over food was removed and fast was begun. There was twice a day oral dosing of compound or vehicle on day 1 and day 2 of the fast, on day 3 there was an oral dose the morning (8 am) before the blood draw (9 am). Food was returned to the monkeys at this point. Oral dosing occurred at approximately 8:00 a.m. and 4:00 p.m. administered by oral gavage. Serum chemistries were screened on baseline and end of treatment blood draws. Significant changes were detected in bilirubin levels. Bilirubin increased in the fasted state, as expected (total, direct, and indirect bilirubin changed 2.0-, 2.4- and 1.92-fold, respectively over baseline).

[1] = fasted cynomolgus monkeys, 30 mg/kg oral gavage twice a day, end of treatment (day 3) vs baseline
[2] = serum, 48 hr fast, 30 mg/kg oral twice a day, n=6

Compound: O=C(O)c1ccc2nc(NC(c3ccccc3)c3ccccc3)n(CCc3ccccc3)c2c1.O=S(=O)(O)O [Example 4, 2-[(diphenylmethyl)amino]-1-(2-phenylethyl)-1H-benzimidazole-6-carboxylic acid sulfate]
- direct bilirubin change over baseline [1]: 4.71 fold
- indirect bilirubin change over baseline [1]: 3.53 fold
- total bilirubin change over baseline [1]: 3.74 fold
- DBIL (direct bilirubin) [2]: 0.165 ± 0.01 mg/dL
- IBIL (indirect bilirubin) [2]: 0.565 ± .036 mg/dL
- TBIL (total bilirubin) [2]: 0.73 ± 0.04 mg/dL
